SMILES strings stand for the structures.

The values that follow come from patent publication US8609660B2, “4,7-dihydro-pyrazolo[1,5-a]pyrazin-6-ylamine derivatives useful as inhibitors of beta-secretase (BACE)” (Janssen Pharmaceutica NV, priority 2010, dated 2013).

The subject of series [1] is Aβ42 produced and secreted into the medium of human neuroblastoma SKNBE2 cells. The series is described as follows: Cellular αlisa assay in SKNBE2 cells, Aβ42. To be noted: SKNBE2 cells expressing hAPP695, 18 hours incubation; for IC50: Homo sapiens, SKNBE2, 18 h, read-out: Cellular αlisa assay in SKNBE2 cells Aβ42 pIC50 (converted). Format: cell-based. As to the method:
(§1) Cellular αlisa Assay in SKNBE2 Cells In two αlisa assays the levels of Aβtotal and Aβ42 produced and secreted into the medium of human neuroblastoma SKNBE2 cells are quantified. The assay is based on the human neuroblastoma SKNBE2 expressing the wild type Amyloid Precursor Protein (hAPP695). […] Aβtotal and Aβ42 are measured by sandwich α[…] sandwich assay using biotinylated antibody AbN/25 attached to streptavidin coated beads and antibody Ab4G8 or cAb42/26 conjugated acceptor beads for the detection of Aβtotal and Aβ42 respectively. In the presence of Aβtotal or Aβ42, the beads come into close proximity. The excitation of the Donor beads provokes the release of singlet oxygen molecules that triggers a cascade of energy transfer in the Acceptor beads, resulting in light emission. Light emission is measured after 1 hour incubation (excitation at […] and emission at 615 nm). A best-fit curve is fitted by a minimum sum of squares method to the plot of % Controlmin versus compound concentration. […] [formula]

Series [2] concerns the target T1, recombinant BACE1 protein (Homo sapiens, UniProt P56817).
T1 construct: recombinant BACE1 protein in a final concentration of 1 μg/ml
The series is described as follows: Biochemical FRET based assay. To be noted: recombinant BACE1 1 μg/ml, 120 min, room temperature, pH 5.0; for IC50: read-out: Biochemical FRET based assay pIC50 (converted). The text has this:
Biochemical FRET Based Assay This assay is a Fluorescence Resonance Energy Transfer Assay (FRET) based assay. The substrate for this assay is an APP derived 13 amino acids peptide that contains the 'Swedish' […] mutation of the amyloid precursor protein (APP) β-secretase cleavage site. […] Upon cleavage by BACE1, the fluorophore Mca is separated from the quenching group Dnp, restoring the full fluorescence yield of the donor. The increase in fluorescence is linearly related to the rate of proteolysis (Koike H et al. J Biochem. 1999, 126, 235-42). Briefly in a 384-well format recombinant BACE1 protein in a final concentration of 1 μg/ml is incubated for 120 minutes at room temperature with 10 μm substrate in incubation buffer (40 mM Citrate buffer pH 5.0, 0.04% PEG, 4% DMSO) in the absence or presence of compound. Next the amount of proteolysis is directly measured by fluorescence measurement at T=0 and T=120 (excitation at 320 nm and emission at 405 nm). […] [formula]

Series [3] deals with Aβtotal produced and secreted into the medium of human neuroblastoma SKNBE2 cells. Description: Cellular αlisa assay in SKNBE2 cells, Aβtotal. The format is cell-based. To be noted: SKNBE2 cells expressing hAPP695, 18 hours incubation; for IC50: Homo sapiens, SKNBE2, 18 h, read-out: Cellular αlisa assay in SKNBE2 cells Aβtotal pIC50 (converted). On the procedure:
as §1

The subject of series [4] is brain levels of total Aβ. The series is described as follows: In vivo efficacy: brain Aβtotal lowering (ELISA). To be noted: 30 mpk, sc. Details: species or system mouse. From the text:
(§2) To determine whether acute administration of an Aβ42 peptide lowering agent would reduce Aβ peptide levels in vivo, non-transgenic rodents, e.g. mice or rats were used. Animals treated with the Aβ peptide lowering agent were examined and compared to those untreated or treated with vehicle and brain levels of soluble Aβ42 and total Aβ were quantitated by standard techniques, for example, using ELISA. Treatment periods varied from hours (h) to days and were adjusted based on the results of the Aβ42 lowering once a time course of onset of effect could be established.
(§3) A typical protocol for measuring Aβ42 lowering in vivo is shown but it is only one of many variations that could be used to optimize the levels of detectable Aβ. For example, Aβ peptide lowering compounds were formulated in 20% hydroxypropyl β cyclodextrin. The Aβ peptide lowering agents were administered as a single oral dose (p.o.) or a single subcutaneous dose (s.c.) to overnight fasted animals. After a certain time, usually 2 or 4 h (as indicated in Table 19), the animals were sacrificed and Aβ42 levels were analysed.
(§4) Blood was collected by decapitation and exsanguinations in EDTA-treated collection tubes. […] The left hemisphere was stored at −18° C. for quantitative analysis of test compound levels. […]
(§5) Mouse brains from non-transgenic animals were resuspended in 8 volumes of 0.4% DEA (diethylamine)/50 mM NaCl containing protease inhibitors (Roche-11873580001 or 04693159001) per gram of tissue, e.g. for 0.158 g brain, add 1.264 ml of 0.4% DEA. […] Nine parts of supernatant were neutralized with 1 part 0.5 M Tris-HCl pH 6.8 and used to quantify Aβtotal and Aβ42.
To quantify the amount of Aβtotal and Aβ42 in the soluble fraction of the brain homogenates, Enzyme-Linked-Immunosorbent-Assays were used. […] Following this incubation and subsequent wash steps the ELISA for Aβ42 quantification was finished by addition of Quanta Blu fluorogenic peroxidase substrate according to the manufacturer's instructions (Pierce Corp., Rockford, Ill.). A reading was performed after 10 to 15 min (excitation 320 nm/emission 420 nm). […]
On the technique in general: An ELISA detects its analyte on a solid surface through an enzyme-linked reagent.

Series [5] deals with brain levels of soluble Aβ42. Description: In vivo efficacy: brain Aβ42 lowering (ELISA). Details: species or system mouse. The following applies: 30 mpk, sc.
Text: as §2, §3, §4, §5
To quantify the amount of Aβtotal and Aβ42 in the soluble fraction of the brain homogenates, Enzyme-Linked-Immunosorbent-Assays were used. […] Following this incubation and subsequent wash steps the ELISA for Aβ42 quantification was finished by addition of Quanta Blu fluorogenic peroxidase substrate according to the manufacturer's instructions (Pierce Corp., Rockford, Ill.). A reading was performed after 10 to 15 min (excitation 320 nm/emission 420 nm).

T1 sequence (P56817 46-501): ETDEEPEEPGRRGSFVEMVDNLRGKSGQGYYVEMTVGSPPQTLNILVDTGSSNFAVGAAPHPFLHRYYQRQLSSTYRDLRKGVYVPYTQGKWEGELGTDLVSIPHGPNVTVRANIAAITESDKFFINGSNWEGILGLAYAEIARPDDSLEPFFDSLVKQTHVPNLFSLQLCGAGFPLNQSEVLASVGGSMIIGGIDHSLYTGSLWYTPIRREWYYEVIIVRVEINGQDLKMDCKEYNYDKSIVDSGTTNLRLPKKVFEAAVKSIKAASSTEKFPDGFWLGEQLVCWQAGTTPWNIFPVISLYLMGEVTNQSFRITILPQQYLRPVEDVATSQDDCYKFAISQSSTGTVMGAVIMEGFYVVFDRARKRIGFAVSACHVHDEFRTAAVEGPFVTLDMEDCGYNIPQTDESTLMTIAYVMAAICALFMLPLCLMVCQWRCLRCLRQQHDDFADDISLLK

For orientation: melting point means the temperature, or range, at which the solid turns liquid. On to `NC1=N[C@@](c2cc(NC(=O)c3ncc(Cl)cc3F)ccc2F)(C2CC2)c2ccnn2C1` [Compound 33, (R)—N-{3-[6-amino-4-cyclopropyl-4,7-dihydropyrazolo[1,5-a]pyrazin-4-yl]-4-fluorophenyl}-5-chloro-3-fluoropyridine-2-carboxamide], for which the melting point is 272.6 °C. In addition, the IC50 in series [1] is 25.7 nM. In series [2], the IC50 was 309 nM. Further, the IC50 in series [3] is 20.9 nM.
`CC1(c2cc(-c3cncnc3)c(F)cc2F)N=C(N)Cn2nccc21` (racemic) [Compound 4, rac-4-(2,4-difluoro-5-pyrimidin-5-yl-phenyl)-4-methyl-4,7-dihydropyrazolo[1,5-a]pyrazin-6-amine] came in with a melting point of 207 °C. For the same compound, the IC50 in series [1] is 1070 nM. In series [2], the IC50 is 8710 nM. In series [3], the IC50 is 1050 nM.
Consider `CC1(c2cc(-c3cncc(Cl)c3)ccc2F)N=C(N)Cn2nc(C(F)(F)F)cc21` (racemic) [Compound 24, rac-4-[5-(5-chloropyridin-3-yl)-2-fluorophenyl]-4-methyl-2-(trifluoromethyl)-4,7-dihydropyrazolo[1,5-a]pyrazin-6-amine], for which the melting point came to 175.2 °C.
For the compound `CC1(c2cc(NC(=O)c3ccc(Cl)cn3)ccc2F)N=C(N)Cn2nccc21` (single isomer, unassigned) [Compound 11, (R*)—N-[3-(6-amino-4-methyl-4,7-dihydropyrazolo[1,5-a]pyrazin-4-yl)-4-fluorophenyl]-5-chloropyridine-2-carboxamide], in series [1], the “Cellular αlisa assay in SKNBE2 cells Aβ42 pIC50” value was found to be 8.36. In series [2], the IC50 is 42.7 nM. Further, the “Cellular αlisa assay in SKNBE2 cells Aβtotal pIC50” value in series [3] came out at 8.37. In addition, in series [4] (4 h after administration), the “Aβtotal (% Ctrl)_Mean” value turned out to be 80 % Ctrl. The “Aβ42 (% Ctrl)_Mean” value in series [5] (4 h after administration) stood at 71 % Ctrl.
With `CC1(c2cc(NC(=O)c3ccc(Cl)cn3)ccc2F)N=C(N)Cn2nccc21` (single isomer, unassigned) [Compound 10, (S*)—N-[3-(6-Amino-4-methyl-4,7-dihydropyrazolo[1,5-a]pyrazin-4-yl)-4-fluorophenyl]-5-chloropyridine-2-carboxamide], the melting point stood at 199 °C. For the same compound, in series [1], the “Cellular αlisa assay in SKNBE2 cells Aβ42 pIC50” value is reported as 5.41. In addition, in series [2], the IC50 was > 30200 nM. Moreover, the “Cellular αlisa assay in SKNBE2 cells Aβtotal pIC50” value in series [3] stood at 5.44.
For the compound `COc1cccc(-c2cccc([C@@]3(C)N=C(N)Cn4nccc43)c2)c1` [Compound 7, (R)-4-(3′-methoxybiphenyl-3-yl)-4-methyl-4,7-dihydropyrazolo[1,5-a]pyrazin-6-amine], the melting point was 153.8 °C.
Turning to `CC1(c2cc(NC(=O)c3ncc(Cl)cc3Cl)ccc2F)N=C(N)Cn2nc(C(F)(F)F)cc21` (racemic) [Compound 27, rac-N-{3-[6-amino-4-methyl-2-(trifluoromethyl)-4,7-dihydropyrazolo[1,5-a]pyrazin-4-yl]-4-fluorophenyl}-3,5-dichloropyridine-2-carboxamide], the melting point amounted to 198 °C.
Turning to `COc1cnc(C(=O)Nc2ccc(F)c(C3(C)N=C(N)Cn4nc(C(F)(F)F)cc43)c2)cn1` (racemic) [Compound 30], the “Cellular αlisa assay in SKNBE2 cells Aβ42 pIC50” value in series [1] is 6.8. Moreover, in series [2], the “Biochemical FRET based assay pIC50” value is listed as 6.68. For the same compound, in series [3], the “Cellular αlisa assay in SKNBE2 cells Aβtotal pIC50” value came to 6.78.
On to `COc1cncc(-c2cccc(C3(C)N=C(N)Cn4nc(C(F)(F)F)cc43)c2)c1` (racemic) [Compound 21, rac-4-[3-(5-methoxypyridin-3-yl)-phenyl]-4-methyl-2-(trifluoromethyl)-4,7-dihydropyrazolo[1,5-a]pyrazin-6-amine], for which the melting point was determined as 89.3 °C.
`CC1(c2cc(-c3cncc(Cl)c3)ccc2F)N=C(N)Cn2nc(C(F)(F)F)cc21` (stereo not drawn) [Compound 24, rac-4-[5-(5-chloropyridin-3-yl)-2-fluorophenyl]-4-methyl-2-(trifluoromethyl)-4,7-dihydropyrazolo[1,5-a]pyrazin-6-amine]: the IC50 in series [1] was 5890 nM; in series [2], 7240 nM; in series [3], 5370 nM.
For `CC1(c2cccc(-c3cc(Cl)cc(Cl)c3)c2)N=C(N)Cn2nccc21` (centres unmarked) [Compound 20], in series [1], the “Cellular αlisa assay in SKNBE2 cells Aβ42 pIC50” value was determined as 6.33. Besides, the “Biochemical FRET based assay pIC50” value in series [2] is on record as 6.76. The “Cellular αlisa assay in SKNBE2 cells Aβtotal pIC50” value in series [3] stood at 6.37. Besides, the “Aβtotal (% Ctrl)_Mean” value in series [4] (2 h after administration) is 80 % Ctrl. Moreover, the “Aβ42 (% Ctrl)_Mean” value in series [5] (2 h after administration) came to 86 % Ctrl.
As to `CC1(c2cc(NC(=O)c3ccc(Cl)cn3)ccc2F)N=C(N)Cn2nccc21` (racemic) [Compound 13], in series [1], the “Cellular αlisa assay in SKNBE2 cells Aβ42 pIC50” value was determined as 7.72. The “Biochemical FRET based assay pIC50” value in series [2] was 6.84. In addition, in series [3], the “Cellular αlisa assay in SKNBE2 cells Aβtotal pIC50” value was 7.73.
Consider `COc1cncc(-c2cccc(C3(C)N=C(N)Cn4nc(C(F)(F)F)cc43)c2)c1` (single isomer, unassigned) [Compound 22, (R*)-4-[3-(5-methoxypyridin-3-yl)-phenyl]-4-methyl-2-(trifluoromethyl)-4,7-dihydropyrazolo[1,5-a]pyrazin-6-amine], for which, in series [1], the “Cellular αlisa assay in SKNBE2 cells Aβ42 pIC50” value turned out to be 6.13. In series [2], the IC50 was 603 nM. The “Cellular αlisa assay in SKNBE2 cells Aβtotal pIC50” value in series [3] turned out to be 6.18.
For the compound `COc1cncc(-c2cccc(C3(C)N=C(N)Cn4nc(C(F)(F)F)cc43)c2)c1` (stereo not drawn) [Compound 21, rac-4-[3-(5-methoxypyridin-3-yl)-phenyl]-4-methyl-2-(trifluoromethyl)-4,7-dihydropyrazolo[1,5-a]pyrazin-6-amine], the figures for the IC50 in series [1], in series [2] and in series [3] were 407 nM, 1070 nM and 398 nM, respectively.
